Patent US4464385A, “Treatment of diabetic complications with hydantoins” (Alcon Laboratories, Inc., priority 1982, dated 1984)

Assays:
aldose reductase = conditions: U.S. Pat. No. 4,130,714; cited from earlier work
cataracts in rats = experiment: Prevention or retardation of cataracts in galactose-fed rats; format: in vivo, rat; conditions: 30% galactose diet, A,C,E 0.0025%, B,D 0.01%
Procedure, shortened: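 Rats given test compound mixed into diet (by % of total feed weight; 0.01% designed to supply 20 mg/kg/day) ad libitum for thirty days after a two-day chow acclimatization, twelve animals per treatment. Eyes examined by handheld ophthalmoscope and/or penlight and each eye graded.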

O=C1NC(=O)C2(CCSc3ccc(F)cc32)N1 (single isomer, unassigned) [d-6'-fluoro-spiro[imidazolidine-4,4'-thiochroman]-2,5' dione]
enhanced activity: activity in preventing chronic diabetic complications (aldose reductase)

O=C1NC(=O)C2(CCOc3ccc(F)cc32)N1 (stereo not shown) [E]
58.4%: % of Total Eyes, - (Normal) (cataracts in rats; Study Day 18)
3 eyes: Number of Eyes Observed, ± (cataracts in rats; Study Day 14) | Number of Eyes Observed, - (Normal) (cataracts in rats; Study Day 20) | Number of Eyes Observed, + (vacuole) (cataracts in rats; Study Day 24)
0 eyes: Number of Eyes Observed, + (vacuole) (cataracts in rats; Study Day 2) | Number of Eyes Observed, N (nuclear cataract) (cataracts in rats; Study Day 2) | Number of Eyes Observed, S (snowflake) (cataracts in rats; Study Day 2) | Number of Eyes Observed, ± (cataracts in rats; Study Day 2) | Number of Eyes Observed, + (vacuole) (cataracts in rats; Study Day 3) | Number of Eyes Observed, N (nuclear cataract) (cataracts in rats; Study Day 3) | Number of Eyes Observed, S (snowflake) (cataracts in rats; Study Day 3) | Number of Eyes Observed, ± (cataracts in rats; Study Day 3) | Number of Eyes Observed, + (vacuole) (cataracts in rats; Study Day 4) | Number of Eyes Observed, N (nuclear cataract) (cataracts in rats; Study Day 4) | Number of Eyes Observed, S (snowflake) (cataracts in rats; Study Day 4) | Number of Eyes Observed, ± (cataracts in rats; Study Day 4) | Number of Eyes Observed, + (vacuole) (cataracts in rats; Study Day 5) | Number of Eyes Observed, N (nuclear cataract) (cataracts in rats; Study Day 5) | Number of Eyes Observed, S (snowflake) (cataracts in rats; Study Day 5) | Number of Eyes Observed, ± (cataracts in rats; Study Day 5) | Number of Eyes Observed, + (vacuole) (cataracts in rats; Study Day 6) | Number of Eyes Observed, N (nuclear cataract) (cataracts in rats; Study Day 6) | Number of Eyes Observed, S (snowflake) (cataracts in rats; Study Day 6) | Number of Eyes Observed, ± (cataracts in rats; Study Day 6) | Number of Eyes Observed, + (vacuole) (cataracts in rats; Study Day 8) | Number of Eyes Observed, N (nuclear cataract) (cataracts in rats; Study Day 8) | Number of Eyes Observed, S (snowflake) (cataracts in rats; Study Day 8) | Number of Eyes Observed, ± (cataracts in rats; Study Day 8) | Number of Eyes Observed, + (vacuole) (cataracts in rats; Study Day 10) | Number of Eyes Observed, N (nuclear cataract) (cataracts in rats; Study Day 10) | Number of Eyes Observed, S (snowflake) (cataracts in rats; Study Day 10) | Number of Eyes Observed, ± (cataracts in rats; Study Day 10) | Number of Eyes Observed, + (vacuole) (cataracts in rats; Study Day 12) | Number of Eyes Observed, N (nuclear cataract) (cataracts in rats; Study Day 12) | Number of Eyes Observed, S (snowflake) (cataracts in rats; Study Day 12) | Number of Eyes Observed, + (vacuole) (cataracts in rats; Study Day 14) | Number of Eyes Observed, N (nuclear cataract) (cataracts in rats; Study Day 14) | Number of Eyes Observed, S (snowflake) (cataracts in rats; Study Day 14) | Number of Eyes Observed, + (vacuole) (cataracts in rats; Study Day 16) | Number of Eyes Observed, N (nuclear cataract) (cataracts in rats; Study Day 16) | Number of Eyes Observed, S (snowflake) (cataracts in rats; Study Day 16) | Number of Eyes Observed, + (vacuole) (cataracts in rats; Study Day 18) | Number of Eyes Observed, N (nuclear cataract) (cataracts in rats; Study Day 18) | Number of Eyes Observed, S (snowflake) (cataracts in rats; Study Day 18) | Number of Eyes Observed, N (nuclear cataract) (cataracts in rats; Study Day 20) | Number of Eyes Observed, - (Normal) (cataracts in rats; Study Day 22) | Number of Eyes Observed, N (nuclear cataract) (cataracts in rats; Study Day 22) | Number of Eyes Observed, - (Normal) (cataracts in rats; Study Day 24) | Number of Eyes Observed, N (nuclear cataract) (cataracts in rats; Study Day 24) | Number of Eyes Observed, - (Normal) (cataracts in rats; Study Day 26) | Number of Eyes Observed, N (nuclear cataract) (cataracts in rats; Study Day 26) | Number of Eyes Observed, ± (cataracts in rats; Study Day 26) | Number of Eyes Observed, - (Normal) (cataracts in rats; Study Day 28) | Number of Eyes Observed, N (nuclear cataract) (cataracts in rats; Study Day 28) | Number of Eyes Observed, ± (cataracts in rats; Study Day 28) | Number of Eyes Observed, - (Normal) (cataracts in rats; Study Day 30) | Number of Eyes Observed, N (nuclear cataract) (cataracts in rats; Study Day 30) | Number of Eyes Observed, ± (cataracts in rats; Study Day 30)
21 eyes: Number of Eyes Observed, - (Normal) (cataracts in rats; Study Day 14)
4.2%: % of Total Eyes, + (vacuole) (cataracts in rats; Study Day 20) | % of Total Eyes, + (vacuole) (cataracts in rats; Study Day 30)
16.7%: % of Total Eyes, + (vacuole) (cataracts in rats; Study Day 26)
95.8%: % of Total Eyes, - (Normal) (cataracts in rats; Study Day 12) | % of Total Eyes, S (snowflake) (cataracts in rats; Study Day 30)
23 eyes: Number of Eyes Observed, - (Normal) (cataracts in rats; Study Day 12) | Number of Eyes Observed, S (snowflake) (cataracts in rats; Study Day 30)
91.7%: % of Total Eyes, S (snowflake) (cataracts in rats; Study Day 28)
6 eyes: Number of Eyes Observed, ± (cataracts in rats; Study Day 22)
12.5%: % of Total Eyes, - (Normal) (cataracts in rats; Study Day 20) | % of Total Eyes, + (vacuole) (cataracts in rats; Study Day 24)
22 eyes: Number of Eyes Observed, S (snowflake) (cataracts in rats; Study Day 28)
24 eyes: Number of Eyes Observed, - (Normal) (cataracts in rats; Study Day 2) | Number of Eyes Observed, - (Normal) (cataracts in rats; Study Day 3) | Number of Eyes Observed, - (Normal) (cataracts in rats; Study Day 4) | Number of Eyes Observed, - (Normal) (cataracts in rats; Study Day 5) | Number of Eyes Observed, - (Normal) (cataracts in rats; Study Day 6) | Number of Eyes Observed, - (Normal) (cataracts in rats; Study Day 8) | Number of Eyes Observed, - (Normal) (cataracts in rats; Study Day 10)
100.0%: % of Total Eyes, - (Normal) (cataracts in rats; Study Day 2) | % of Total Eyes, - (Normal) (cataracts in rats; Study Day 3) | % of Total Eyes, - (Normal) (cataracts in rats; Study Day 4) | % of Total Eyes, - (Normal) (cataracts in rats; Study Day 5) | % of Total Eyes, - (Normal) (cataracts in rats; Study Day 6) | % of Total Eyes, - (Normal) (cataracts in rats; Study Day 8) | % of Total Eyes, - (Normal) (cataracts in rats; Study Day 10)
87.5%: % of Total Eyes, - (Normal) (cataracts in rats; Study Day 14)
4 eyes: Number of Eyes Observed, ± (cataracts in rats; Study Day 16) | Number of Eyes Observed, + (vacuole) (cataracts in rats; Study Day 26)
10 eyes: Number of Eyes Observed, ± (cataracts in rats; Study Day 18) | Number of Eyes Observed, S (snowflake) (cataracts in rats; Study Day 20) | Number of Eyes Observed, ± (cataracts in rats; Study Day 20)
16 eyes: Number of Eyes Observed, S (snowflake) (cataracts in rats; Study Day 22)
83.3%: % of Total Eyes, - (Normal) (cataracts in rats; Study Day 16) | % of Total Eyes, S (snowflake) (cataracts in rats; Study Day 24) | % of Total Eyes, S (snowflake) (cataracts in rats; Study Day 26)
1 eyes: Number of Eyes Observed, ± (cataracts in rats; Study Day 12) | Number of Eyes Observed, + (vacuole) (cataracts in rats; Study Day 20) | Number of Eyes Observed, ± (cataracts in rats; Study Day 24) | Number of Eyes Observed, + (vacuole) (cataracts in rats; Study Day 30)
2 eyes: Number of Eyes Observed, + (vacuole) (cataracts in rats; Study Day 22) | Number of Eyes Observed, + (vacuole) (cataracts in rats; Study Day 28)
0%: % of Total Eyes, + (vacuole) (cataracts in rats; Study Day 2) | % of Total Eyes, N (nuclear cataract) (cataracts in rats; Study Day 2) | % of Total Eyes, S (snowflake) (cataracts in rats; Study Day 2) | % of Total Eyes, + (vacuole) (cataracts in rats; Study Day 3) | % of Total Eyes, N (nuclear cataract) (cataracts in rats; Study Day 3) | % of Total Eyes, S (snowflake) (cataracts in rats; Study Day 3) | % of Total Eyes, + (vacuole) (cataracts in rats; Study Day 4) | % of Total Eyes, N (nuclear cataract) (cataracts in rats; Study Day 4) | % of Total Eyes, S (snowflake) (cataracts in rats; Study Day 4) | % of Total Eyes, + (vacuole) (cataracts in rats; Study Day 5) | % of Total Eyes, N (nuclear cataract) (cataracts in rats; Study Day 5) | % of Total Eyes, S (snowflake) (cataracts in rats; Study Day 5) | % of Total Eyes, + (vacuole) (cataracts in rats; Study Day 6) | % of Total Eyes, N (nuclear cataract) (cataracts in rats; Study Day 6) | % of Total Eyes, S (snowflake) (cataracts in rats; Study Day 6) | % of Total Eyes, + (vacuole) (cataracts in rats; Study Day 8) | % of Total Eyes, N (nuclear cataract) (cataracts in rats; Study Day 8) | % of Total Eyes, S (snowflake) (cataracts in rats; Study Day 8) | % of Total Eyes, + (vacuole) (cataracts in rats; Study Day 10) | % of Total Eyes, N (nuclear cataract) (cataracts in rats; Study Day 10) | % of Total Eyes, S (snowflake) (cataracts in rats; Study Day 10) | % of Total Eyes, + (vacuole) (cataracts in rats; Study Day 12) | % of Total Eyes, N (nuclear cataract) (cataracts in rats; Study Day 12) | % of Total Eyes, S (snowflake) (cataracts in rats; Study Day 12) | % of Total Eyes, + (vacuole) (cataracts in rats; Study Day 14) | % of Total Eyes, N (nuclear cataract) (cataracts in rats; Study Day 14) | % of Total Eyes, S (snowflake) (cataracts in rats; Study Day 14) | % of Total Eyes, + (vacuole) (cataracts in rats; Study Day 16) | % of Total Eyes, N (nuclear cataract) (cataracts in rats; Study Day 16) | % of Total Eyes, S (snowflake) (cataracts in rats; Study Day 16) | % of Total Eyes, + (vacuole) (cataracts in rats; Study Day 18) | % of Total Eyes, N (nuclear cataract) (cataracts in rats; Study Day 18) | % of Total Eyes, S (snowflake) (cataracts in rats; Study Day 18) | % of Total Eyes, N (nuclear cataract) (cataracts in rats; Study Day 20) | % of Total Eyes, - (Normal) (cataracts in rats; Study Day 22) | % of Total Eyes, N (nuclear cataract) (cataracts in rats; Study Day 22) | % of Total Eyes, - (Normal) (cataracts in rats; Study Day 24) | % of Total Eyes, N (nuclear cataract) (cataracts in rats; Study Day 24) | % of Total Eyes, - (Normal) (cataracts in rats; Study Day 26) | % of Total Eyes, N (nuclear cataract) (cataracts in rats; Study Day 26) | % of Total Eyes, - (Normal) (cataracts in rats; Study Day 28) | % of Total Eyes, N (nuclear cataract) (cataracts in rats; Study Day 28) | % of Total Eyes, - (Normal) (cataracts in rats; Study Day 30) | % of Total Eyes, N (nuclear cataract) (cataracts in rats; Study Day 30)
66.7%: % of Total Eyes, S (snowflake) (cataracts in rats; Study Day 22)
14 eyes: Number of Eyes Observed, - (Normal) (cataracts in rats; Study Day 18)
8.3%: % of Total Eyes, + (vacuole) (cataracts in rats; Study Day 22) | % of Total Eyes, + (vacuole) (cataracts in rats; Study Day 28)
41.6%: % of Total Eyes, S (snowflake) (cataracts in rats; Study Day 20)
20 eyes: Number of Eyes Observed, - (Normal) (cataracts in rats; Study Day 16) | Number of Eyes Observed, S (snowflake) (cataracts in rats; Study Day 24) | Number of Eyes Observed, S (snowflake) (cataracts in rats; Study Day 26)
